Test results taken from ChEMBL document CHEMBL1137758, “Biphenyl C-cyclopropylalkylamides: New scaffolds for targeting estrogen receptor beta” (Bioorg Med Chem Lett, 2009).

Key:
[1] = molecular target: T1, Estrogen receptor (Homo sapiens) (UniProt P03372); assay: Displacement of fluorescein-labeled estradiol from human recombinant ERalpha at 5 uM by fluorescence polarization assay
T1 sequence (whole entry): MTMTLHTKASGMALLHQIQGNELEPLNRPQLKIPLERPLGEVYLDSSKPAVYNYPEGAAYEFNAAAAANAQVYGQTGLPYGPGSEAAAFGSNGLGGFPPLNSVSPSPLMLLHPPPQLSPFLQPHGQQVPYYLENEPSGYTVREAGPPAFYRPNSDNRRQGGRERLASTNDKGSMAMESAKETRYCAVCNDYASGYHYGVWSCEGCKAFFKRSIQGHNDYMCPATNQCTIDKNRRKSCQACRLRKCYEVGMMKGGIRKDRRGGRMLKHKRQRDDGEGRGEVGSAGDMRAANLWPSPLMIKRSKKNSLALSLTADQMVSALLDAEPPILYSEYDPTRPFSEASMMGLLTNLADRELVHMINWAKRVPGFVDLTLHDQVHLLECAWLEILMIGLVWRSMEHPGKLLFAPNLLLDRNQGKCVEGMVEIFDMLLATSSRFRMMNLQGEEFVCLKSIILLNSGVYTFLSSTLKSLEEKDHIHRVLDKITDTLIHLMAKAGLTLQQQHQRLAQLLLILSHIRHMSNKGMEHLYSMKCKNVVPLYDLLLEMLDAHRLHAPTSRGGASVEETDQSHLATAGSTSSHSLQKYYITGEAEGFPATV

Estrogen receptor beta [2] = molecular target: T2, Estrogen receptor beta (Homo sapiens, UniProt Q92731); assay: Displacement of fluorescein-labeled estradiol from human recombinant ERbeta at 5 uM by fluorescence polarization assay
T2 sequence (Q92731 whole entry): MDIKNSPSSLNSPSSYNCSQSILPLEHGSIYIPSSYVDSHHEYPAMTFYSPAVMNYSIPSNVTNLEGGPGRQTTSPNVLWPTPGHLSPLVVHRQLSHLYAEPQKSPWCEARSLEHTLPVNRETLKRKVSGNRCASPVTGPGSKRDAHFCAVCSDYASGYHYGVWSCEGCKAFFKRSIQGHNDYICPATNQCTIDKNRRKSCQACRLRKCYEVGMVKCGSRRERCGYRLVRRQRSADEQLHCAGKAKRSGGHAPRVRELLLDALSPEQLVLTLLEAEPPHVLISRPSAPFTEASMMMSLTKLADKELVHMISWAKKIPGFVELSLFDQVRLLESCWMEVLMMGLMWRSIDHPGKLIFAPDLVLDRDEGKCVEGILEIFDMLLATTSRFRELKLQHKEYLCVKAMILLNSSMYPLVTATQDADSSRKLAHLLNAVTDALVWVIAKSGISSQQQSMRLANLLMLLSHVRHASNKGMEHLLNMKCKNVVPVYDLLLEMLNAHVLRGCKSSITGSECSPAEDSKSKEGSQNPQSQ

Estrogen receptor beta [3] = molecular target: T2, Estrogen receptor beta; assay: Displacement of fluorescein-labeled estradiol from human recombinant ERbeta at 0.2 uM by fluorescence polarization assay
[4] = molecular target: T1, Estrogen receptor (Homo sapiens); assay: Displacement of fluorescein-labeled estradiol from human recombinant ERalpha at 1 uM by fluorescence polarization assay
[5] = molecular target: T1, Estrogen receptor (Homo sapiens); assay: Displacement of fluorescein-labeled estradiol from human recombinant ERalpha at 0.2 uM by fluorescence polarization assay
Estrogen receptor beta [6] = molecular target: T2, Estrogen receptor beta; assay: Displacement of fluorescein-labeled estradiol from human recombinant ERbeta at 1 uM by fluorescence polarization assay

SMILES	Activity [1] [%]	Activity (Estrogen receptor beta [2]) [%]	Activity (Estrogen receptor beta [3]) [%]	Activity [4] [%]	Activity [5] [%]	Activity (Estrogen receptor beta [6]) [%]
CCC/C=C(\CCC)[C@@H](NC(=O)c1ccc(-c2ccccc2)cc1)c1ccc(C(=O)OC)cc1	27	4	-1	25	27	-3
CCC/C=C(\CCC)[C@@H](NC(=O)c1cccs1)c1ccc(C(=O)OC)cc1	86	31	5	73	48	13
CCCCCC/C=C(\C)[C@@H](NC(=O)c1ccc(C(F)(F)F)cc1)c1ccc(-c2ccccc2)cc1	1	-3	-7	20	29	-6
CCC/C=C(\CCC)[C@@H](NS(=O)(=O)c1cccc2cccnc12)c1ccc(C(=O)OC)cc1	54	42	7	111	54	24
CCC/C=C(\CCC)[C@@H](NS(=O)(=O)c1ccc(-c2ccccc2)cc1)c1ccc(C(=O)OC)cc1	54	16	6	47	-69	12
CCCC[C@@H]1C[C@H]1[C@@H](NC(=O)c1ccccc1)c1ccc(-c2ccccc2)cc1	–	46	26	77	72	31
CCC/C=C(\CCC)[C@@H](NC(=O)CCc1ccccc1)c1ccc(C(F)(F)F)cc1	67	17	8	31	56	13
C=C(CCCC)[C@@H](NC(=O)c1ccco1)c1ccccc1	41	6	-3	29	-111	-2
CCCC[C@@H]1C[C@H]1[C@@H](NS(=O)(=O)c1cccc2cccnc12)c1ccc(-c2ccccc2)cc1	91	22	28	74	52	18
CCCC[C@@H]1C[C@H]1[C@@H](NC(=O)c1ccc(C(F)(F)F)cc1)c1ccc(C(=O)OC)cc1	45	15	-2	45	20	1
CCCC[C@@H]1C[C@H]1[C@@H](NC(=O)c1ccccc1)c1ccc(C(F)(F)F)cc1	48	13	-9	33	32	1
CCC/C=C(\CCC)[C@@H](NC(=O)Cc1ccccc1)c1ccc(C(=O)OC)cc1	48	13	-11	22	3	-2
CCC/C=C(\CCC)[C@@H](NC(=O)c1ccc(C(F)(F)F)cc1)c1ccccc1	68	16	10	59	47	11
CCC/C=C(\CCC)[C@@H](NC(=O)c1ccccc1)c1ccccc1	82	17	8	56	51	6
CCC/C=C(\CCC)[C@@H](NC(=O)c1ccc(C(F)(F)F)cc1)c1ccc(C(F)(F)F)cc1	61	5	10	32	-7	5
C=C(CCCC)[C@@H](NC(=O)c1ccc(-c2ccccc2)cc1)c1ccccc1	46	8	0	35	-33	2
CCC[C@@H]1C[C@@]1(CCC)[C@@H](NC(=O)c1ccco1)c1ccc(C(Cl)(Cl)Cl)cc1	73	25	-2	39	26	5
CCCC[C@@H]1C[C@H]1[C@@H](NC(=O)Cc1ccccc1)c1ccc(-c2ccccc2)cc1	28	14	2	33	47	8
C=C(CCCC)[C@@H](NC(=O)c1cccs1)c1ccccc1	54	8	-1	40	67	-3
CCC/C=C(\CCC)[C@@H](NS(=O)(=O)c1ccc(C(F)(F)F)cc1)c1ccc(-c2ccccc2)cc1	46	7	7	14	72	8
CCC/C=C(\CCC)[C@@H](NS(=O)(=O)c1ccccc1Cl)c1ccc(C(=O)OC)cc1	98	40	15	92	61	32
CCC/C=C(\CCC)[C@@H](NS(=O)(=O)c1cccc2cccnc12)c1ccc(-c2ccccc2)cc1	67	13	14	28	56	11
CCC/C=C(\CCC)[C@@H](NC(=O)c1ccc(C(=O)OC)cc1)c1ccc(C(=O)OC)cc1	38	8	-13	24	-14	-3
CCC/C=C(\CCC)[C@@H](NP(=O)(c1ccccc1)c1ccccc1)c1ccc(C(F)(F)F)cc1	79	27	8	65	55	16

Continued, values first:

Activity [1] [%]	Activity (Estrogen receptor beta [2]) [%]	Activity (Estrogen receptor beta [3]) [%]	Activity [4] [%]	Activity [5] [%]	Activity (Estrogen receptor beta [6]) [%]	SMILES
-44	-5	2	30	5	-1	CCC[C@@H]1C[C@@]1(CCC)[C@@H](NP(=O)(c1ccccc1)c1ccccc1)c1ccc(Cl)cc1
73	19	9	31	43	12	CCC/C=C(\CCC)[C@@H](NC(=O)c1cccs1)c1ccc(C(F)(F)F)cc1
73	7	11	68	68	7	C=C(CCC)[C@@H](NC(=O)c1ccccc1Cl)c1ccccc1
110	22	-4	84	69	3	CCC/C=C(\CCC)[C@@H](NC(=O)CC(C)C)c1ccccc1
102	30	13	66	70	10	CCC/C=C(\CCC)[C@@H](NS(=O)(=O)c1ccccc1)c1ccc(C(F)(F)F)cc1
76	15	-4	58	36	-4	CCC/C=C(\CCC)[C@@H](NC(=O)c1ccco1)c1ccc(C(=O)OC)cc1
56	7	-2	39	40	-4	CCCC[C@@H]1C[C@H]1[C@@H](NC(=O)C(C)(C)C)c1ccc(C(F)(F)F)cc1
92	32	5	33	39	8	CCC/C=C(\CCC)[C@@H](NS(=O)(=O)c1cccs1)c1ccc(C(=O)OC)cc1
48	6	-8	44	32	-4	CCCCCC/C=C(\C)[C@@H](NC(=O)c1cccnc1)c1ccc(-c2ccccc2)cc1
95	42	6	61	42	13	CCC/C=C(\CCC)[C@@H](NS(=O)(=O)c1ccc(C(Cl)(Cl)Cl)cc1)c1ccccc1
-6	4	0	42	52	6	CCCC[C@@H]1C[C@H]1[C@@H](NC(=O)c1ccc(-c2ccccc2)cc1)c1ccc(-c2ccccc2)cc1
53	10	2	63	64	2	CCCC[C@@H]1C[C@H]1[C@@H](NC(=O)c1cccnc1)c1ccc(-c2ccccc2)cc1
79	13	8	58	50	14	CCCC[C@@H]1C[C@H]1C(NC(=O)c1cccs1)c1ccc(C(F)(F)F)cc1 (single isomer, unassigned)
